Measured values: US20150005347A1, “NITROGEN-CONTAINING HETEROCYCLIC DERIVATIVE HAVING 2-IMINO GROUP AND PEST CONTROL AGENT INCLUDING THE SAME” (MEIJI SEIKA PHARMA CO., LTD., priority 2012, published 2015)
Read-outs that look alike come from different tables or passages of the source.

How the values were obtained:
Type in all cases: in vivo
Spodoptera litura = test: Pest control test against Spodoptera litura, cabbage leaf disk foliar spray; settings: for % Mortality, Test Example2 Spodoptera litura: foliar treatment, 100 ppm; for mortality at 500 ppm: Spodoptera litura, 72 h, read-out: mortality of larvae
Experimental: Test Example 2 Pest Control Test Against Spodoptera litura
(§1) A leaf disk having a diameter of 5.0 cm was cut out from a cabbage in pot culture, and a drug solution of the compound of the present invention at a predetermined concentration, which had been prepared so as to be a 50% acetone water (0.05% Tween20 available), was sprayed to the leaf disk. After an air drying process, third instar larvae were released thereto. Thereafter, the larvae were left to stand in a thermostatic chamber (16 hours of light period-8 hours of dark period) at 25° C. […] Test in duplicate.
(§2) Mortality of larvae(%)={number of dead larvae/(number of survived larvae+number of dead larvae)}×100

Musca domestica = test: Pest control test of Musca domestica adults, sucrose pledget; settings: 50 ppm in 40% sucrose liquid; four days after release
Experimental: Test Example 21 Pest Control Test of Musca domestica
A drug solution of the compound of the present invention, which had been adjusted to be 50 ppm with a 40% sucrose liquid, was adsorbed on a pledget, and the pledget was put into a vial. Two adults reared indoors were released thereto. Thereafter, the adults were left to stand indoors at room temperature of 25° C. […] When two adults were all agonized in death, it was judged to be effective.

[1] = test system: Trigonotylus caelestialium; test: Pest control test of Trigonotylus caelestialium, wheat seedling dipping
Text: Test Example 8 Pest Control Test of Trigonotylus caelestialium
Wheat seedling leaves and stems four days after the dissemination of seedlings were dipped for 30 seconds in a drug solution of the compound of the present invention at a predetermined concentration, which had been prepared so as to be a 50% acetone water (0.05% Tween20 available). After an air drying process, the wheat seedling leaves and stems were placed into a glass tube, and two second instar larvae of Trigonotylus caelestialium were released to the same glass tube. After the larvae were released, the tube was lidded to leave the larvae to stand in a thermostatic chamber at 25° C. In order to supply water to the wheat during the test, water was given to the wheat from the bottom of the glass tube.
as §2

Plutella xylostella = Plutella xylostella control test, cabbage leaf disk foliar spray; settings: for % Mortality, Test Example1 Plutella xylostella: foliar treatment
Experimental: Test Example 1 Plutella xylostella Control Test
as §1, with “second” for “third”
mortality larvae(%)={number of dead larvae/(number of survived larvae+number of dead larvae)}×100

Aphis gossypii = test: Pest control test of Aphis gossypii, cucumber leaf disk foliar spray; settings: foliar treatment
Experimental: Test Example 3 Pest Control Test of Aphis gossypii
as §1, with “2.0” for “5.0”, “cucumber” for “cabbage”, “first” for “third”
as §2

[2] = test system: Nilaparvata lugens exhibiting drug resistance to imidacloprid; settings: soil irrigation; for Insecticidal effects against Nilaparvata lugens (mortality of larvae %), Drug resistant populations three days after the treatment: Rate 0.05 mg/pot; for insecticidal effects against drug resistant Nilaparvata lugens: imidacloprid-resistant; for mortality of larvae against drug resistant populations compared with susceptible populations of Nilaparvata lugens: imidacloprid-resistant vs susceptible
Experimental: Test Example 18 Pest Control Test of Drug-Resistant Nilaparvata lugens
(§3) A rice seedling in pot culture was subjected to soil irrigation treatment with a drug solution of the compound of the present invention at a predetermined concentration, which had been prepared so as to be a 10% acetone water. […] Thereafter, the larvae were left to stand in a thermostatic chamber (16 hours of light period-8 hours of dark period) at 25° C. […] The test was performed in duplicate.
as §2
(§4) Further, for the origin of test pests, bugs collected outdoors within the Kumamoto prefecture in 2007 as the drug resistant Nilaparvata lugens, and bugs collected within the Kagoshima prefecture and then successively reared indoors for a long time as the imidacloprid susceptible populations of Nilaparvata lugens were used.

Laodelphax striatella = test: Pest control test of Laodelphax striatella, soil irrigation treatment of rice seedling; settings: for % Mortality, Test Example 10 Laodelphax striatella: soil irrigation treatment; for mortality of larvae: soil irrigation, 0.05 mg/seedling, three days after release
Text: <Soil Irrigation Treatment Test>
Test Example 10 Pest Control Test of Laodelphax striatellua
(§5) A rice seedling in pot culture was subjected to soil irrigation treatment with a drug solution of the compound of the present invention at a predetermined concentration, which had been prepared so as to be a 10% acetone water. Three days after the treatment, ten second instar larvae of Laodelphax striatella were each released thereto. Thereafter, the larvae were left to stand in a thermostatic chamber (16 hours of light period-8 hours of dark period) at 25° C. […] The test was performed in duplicate.
as §2

[3] = test system: imidacloprid susceptible populations of Nilaparvata lugens; test: Soil irrigation test, imidacloprid susceptible populations of Nilaparvata lugens; settings: Rate 0.05 mg/pot
Experimental: as §3, §2
Further, for comparison, the test against some population of Nilaparvata lugens which is highly susceptible to imidacloprid was performed by the same method as described above, and the results thereof are shown in Table 43.
as §4

[4] = test system: Frankliniella occidentalis; test: Pest control test of Frankliniella occidentalis, kidney bean leaf disk foliar spray; settings: for % Mortality, Test Example7 Frankliniella occidentalis: foliar treatment, 100 ppm
Text: Test Example 7 Pest Control Test of Frankliniella occidentalis
as §1, with “2.8” for “5.0”, “kidney bean” for “cabbage”, “first” for “third”
as §2

Nilaparvata lugens = test: Pest control test of Nilaparvata lugens, soil irrigation treatment; settings: for % Mortality, Test Example 12 Nilaparvata lugens: soil irrigation treatment; for mortality of larvae: soil irrigation, 0.05 mg/seedling, three days after release
Experimental: Test Example 12 Pest Control Test of Nilaparvata lugens
as §5, with “Nilaparvata lugens” for “Laodelphax striatella”
as §2

Row | Compound | % Mortality, Test Example2 Spodoptera litura (Spodoptera litura) [%] | activity against adults (effective when two adults were all agonized in death) (Musca domestica) | % Mortality, Test Example8 Trigonotylus caelestialium ([1]; 2 ppm) [%] | % Mortality, Test Example8 Trigonotylus caelestialium ([1]; 10 ppm) [%] | % Mortality, Test Example8 Trigonotylus caelestialium ([1]; 50 ppm) [%] | % Mortality, Test Example1 Plutella xylostella (Plutella xylostella; 20 ppm) [%] | % Mortality, Test Example1 Plutella xylostella (Plutella xylostella; 100 ppm) [%] | % Mortality, Test Example3 Aphis gossypii (Aphis gossypii; 1.25 ppm) [%] | % Mortality, Test Example3 Aphis gossypii (Aphis gossypii; 5 ppm) [%] | % Mortality, Test Example3 Aphis gossypii (Aphis gossypii; 100 ppm) [%] | Insecticidal effects against Nilaparvata lugens (mortality of larvae %), Drug resistant populations three days after the treatment [2] [%] | insecticidal effects against drug resistant Nilaparvata lugens [2] | mortality of larvae against drug resistant populations compared with susceptible populations of Nilaparvata lugens [2] | % Mortality, Test Example 10 Laodelphax striatella (Laodelphax striatella; 0.05 mg/pot) [%] | Insecticidal effects against Nilaparvata lugens (mortality of larvae %), Susceptible populations three days after the treatment [3] [%] | % Mortality, Test Example7 Frankliniella occidentalis [4] [%] | % Mortality, Test Example 12 Nilaparvata lugens (Nilaparvata lugens; 0.01 mg/pot) [%] | % Mortality, Test Example 12 Nilaparvata lugens (Nilaparvata lugens; 0.05 mg/pot) [%] | mortality of larvae (Laodelphax striatella) [%] | mortality of larvae (Nilaparvata lugens) [%] | also measured
1 | Fc1ccc(Cn2ccccc2=NC(=S)C(F)(F)F)cn1 [Compound 3-20] | 30 | all the adults are agonized in death | 50 | 100 | 100 | 0 | 55 | 100 | 100 | 100 | 100 | high insecticidal effects | equivalent mortality of larvae | 90 | 100 | 45 | 100 | 100 |  |  | % Mortality, Test Example3 Aphis gossypii (Aphis gossypii; 0.313 ppm): 15%; % Mortality, Test Example3 Aphis gossypii (Aphis gossypii; 20 ppm): 100%
2 | CCOC(=O)NC(=S)/N=c1\ccccn1Cc1ccc(Cl)nc1 [Comparative Example 9, 1-[1-((6-chloropyridine-3-yl)methyl)pyridine-2(1H)-ylidene]-3-ethoxycarbonylthiourea, reference compound] |  |  |  |  |  |  |  |  |  |  |  |  |  |  | 0 |  |  |  | 0 | 0 | mortality at 500 ppm (Spodoptera litura; foliar treatment at 500 ppm, third instar larvae, three days after release): 11%
3 | CCNC(=S)N=c1ccccn1Cc1ccc(Cl)nc1 [Comparative Example 8, 1-[1-((6-chloropyridine-3-yl)methyl)pyridine-2(1H)-ylidene]-3-ethylthiourea, reference compound] |  |  |  |  |  |  |  |  |  |  |  |  |  |  | 15 |  |  |  | 0 | 15 | mortality at 500 ppm (Spodoptera litura; foliar): 10%; mortality at 500 ppm (Plutella xylostella; Plutella xylostella, foliar, 72 h, read-out: mortality of larvae): 20%; mortality at 500 ppm ([4]; Frankliniella occidentalis, foliar, 72 h, read-out: mortality of larvae): 15%
4 | Fc1cc(Cn2ccccc2=NC(=S)C(F)(F)F)cnc1Cl [Compound 5-20] | 60 | all the adults are agonized in death |  | 17 |  | 100 | 100 | 55 | 100 |  | 100 | high insecticidal effects | equivalent mortality of larvae | 95 | 91 | 50 | 90 | 100 |  |  | % Mortality, Test Example1 Plutella xylostella (Plutella xylostella; 5 ppm): 20%; % Mortality, Test Example 10 Laodelphax striatella (Laodelphax striatella; 0.005 mg/pot): 26%; % Mortality, Test Example 10 Laodelphax striatella (Laodelphax striatella; 0.01 mg/pot): 52%
5 | FC(F)(F)C(F)(F)C(=S)N=c1ccccn1Cc1ccc(Cl)nc1 [Compound 1-23] |  | all the adults are agonized in death |  |  |  |  |  |  |  |  | 70 | high insecticidal effects | equivalent mortality of larvae |  | 85 |  |  |  |  |  | 
6 | FC(F)(F)C(=S)N=c1ccccn1Cc1ccc(Br)nc1 [Compound 4-20] | 20 | all the adults are agonized in death | 33 | 100 | 100 | 70 | 100 | 100 | 100 | 100 | 100 | high insecticidal effects | equivalent mortality of larvae | 100 | 95 | 60 | 96 | 100 |  |  | % Mortality, Test Example 10 Laodelphax striatella (Laodelphax striatella; 0.005 mg/pot): 35%; % Mortality, Test Example 10 Laodelphax striatella (Laodelphax striatella; 0.01 mg/pot): 100%
